{"source": "ChEMBL document CHEMBL5154879", "about": "“Induction of Genes Implicated in Stress Response and Autophagy by a Novel Quinolin-8-yl-nicotinamide QN523 in Pancreatic Cancer” (J Med Chem, 2022)", "key": {"[1]": {"test": "Downregulation of TRAF7 gene expression in human MIA PaCa-2 cells assessed as fold change in TRAF7 expression at 1 uM incubated for 24 hrs by Bru-seq analysis relative to control", "format": "functional"}, "MIA PaCa-2 [2]": {"test_system": "MIA PaCa-2", "test": "Induction of cell cycle arrest in human MIA PaCa-2 cells assessed as accumulation of cells at S phase at 0.5 uM incubated for 24 hrs by RNase/propidium iodide staining based flow cytometry analysis (Rvb =27.6 %)", "format": "functional"}, "MIA PaCa-2 [3]": {"test_system": "MIA PaCa-2", "test": "Induction of cell cycle arrest in human MIA PaCa-2 cells assessed as accumulation of cells at S phase at 0.1 uM incubated for 48 hrs by RNase/propidium iodide staining based flow cytometry analysis (Rvb =26.9 %)", "format": "functional"}, "MIA PaCa-2 [4]": {"test_system": "MIA PaCa-2", "test": "Induction of cell cycle arrest in human MIA PaCa-2 cells assessed as accumulation of cells at S phase at 0.5 uM incubated for 48 hrs by RNase/propidium iodide staining based flow cytometry analysis (Rvb =26.9 %)", "format": "functional"}, "MIA PaCa-2 [5]": {"test_system": "MIA PaCa-2", "test": "Induction of cell cycle arrest in human MIA PaCa-2 cells assessed as accumulation of cells in G2/M phase at 0.5 uM incubated for 24 hrs by RNase/propidium iodide staining based flow cytometry analysis (reference value: 8.11%)", "format": "functional"}, "MIA PaCa-2 [6]": {"test_system": "MIA PaCa-2", "test": "Induction of cell cycle arrest in human MIA PaCa-2 cells assessed as accumulation of cells in G0/G1 phase at 0.1 uM incubated for 24 hrs by RNase/propidium iodide staining based flow cytometry analysis (reference value: 64.3%)", "format": "functional"}, "MIA PaCa-2 [7]": {"test_system": "MIA PaCa-2", "test": "Induction of apoptosis in human MIA PaCa-2 cells assessed as early apoptotic cells at 0.1 uM incubated for 24 hrs by Annexin V-FITC/PI staining based flow cytometry analysis (reference value: 5.1%)", "format": "functional"}, "MIA PaCa-2 [8]": {"test_system": "MIA PaCa-2", "test": "Induction of apoptosis in human MIA PaCa-2 cells assessed as late apoptotic cells at 0.1 uM incubated for 24 hrs by Annexin V-FITC/PI staining based flow cytometry analysis (reference value: 2.04%)", "format": "functional"}, "MIA PaCa-2 [9]": {"test_system": "MIA PaCa-2", "test": "Induction of apoptosis in human MIA PaCa-2 cells assessed as necrotic cells at 0.1 uM incubated for 24 hrs by Annexin V-FITC/PI staining based flow cytometry analysis (reference value: 2.7%)", "format": "functional"}, "MIA PaCa-2 [10]": {"test_system": "MIA PaCa-2", "test": "Induction of apoptosis in human MIA PaCa-2 cells assessed as necrotic cells at 0.5 uM incubated for 24 hrs by Annexin V-FITC/PI staining based flow cytometry analysis (reference value: 2.7%)", "format": "functional"}, "MIA PaCa-2 [11]": {"test_system": "MIA PaCa-2", "test": "Induction of apoptosis in human MIA PaCa-2 cells assessed as necrotic cells at 0.5 uM incubated for 48 hrs by Annexin V-FITC/PI staining based flow cytometry analysis (reference value: 1.07%)", "format": "functional"}, "MIA PaCa-2 [12]": {"test_system": "MIA PaCa-2", "test": "Antitumor activity against human MIA PaCa-2 cells xenografted in NOD/SCID mouse assessed as tumor growth delay at 20 mg/kg, ip administered five times a week starting from day 10 to 44 post first dose and measured from day 17", "format": "functional, organism-based", "details": "time 44.0 day"}, "[13]": {"test": "Toxicity in NOD/SCID mouse xenografted with human MIA PaCa-2 cells assessed as weight loss at 10 to 20 mg/kg, ip administered five times a week for 44 days", "format": "organism-based", "details": "in vivo, 1056 h, dose 10-20 mg/kg, time 44 day"}, "[14]": {"test": "Toxicity in NOD/SCID mouse xenografted with human MIA PaCa-2 cells assessed as change in body weight at 30 mg/kg, ip administered five times a week starting from day 44 to 51 post first dose", "format": "organism-based", "details": "in vivo, 1224 h, time 51 day"}, "[15]": {"test": "Upregulation of ATF3 gene expression in human MIA PaCa-2 cells assessed as fold change in ATF3 expression at 1 uM incubated for 24 hrs by Bru-seq analysis relative to control", "format": "functional"}, "[16]": {"test": "Upregulation of TRIB3 gene expression in human MIA PaCa-2 cells assessed as fold change in TRIB3 expression at 1 uM incubated for 24 hrs by Bru-seq analysis relative to control", "format": "functional"}, "[17]": {"test": "Upregulation of […] gene expression in human MIA PaCa-2 cells assessed as fold change in […] expression at 1 uM incubated for 24 hrs by Bru-seq analysis relative to control", "format": "functional"}, "[18]": {"test": "Upregulation of SLFN5 gene expression in human MIA PaCa-2 cells assessed as fold change in SLFN5 expression at 1 uM incubated for 24 hrs by Bru-seq analysis relative to control", "format": "functional"}, "[19]": {"test": "Upregulation of CXCL8 gene expression in human MIA PaCa-2 cells assessed as fold change in CXCL8 expression at 1 uM incubated for 24 hrs by Bru-seq analysis relative to control", "format": "functional"}, "[20]": {"test": "Upregulation of TXNIP gene expression in human MIA PaCa-2 cells assessed as fold change in TXNIP expression at 1 uM incubated for 24 hrs by Bru-seq analysis relative to control", "format": "functional"}, "[21]": {"test": "Downregulation of FGF18 gene expression in human MIA PaCa-2 cells assessed as fold change in FGF18 expression at 1 uM incubated for 24 hrs by Bru-seq analysis relative to control", "format": "functional"}, "[22]": {"test": "Downregulation of RGS3 gene expression in human MIA PaCa-2 cells assessed as fold change in RGS3 expression at 1 uM incubated for 24 hrs by Bru-seq analysis relative to control", "format": "functional"}, "[23]": {"test": "Downregulation of CXXC5 gene expression in human MIA PaCa-2 cells assessed as fold change in CXXC5 expression at 1 uM incubated for 24 hrs by Bru-seq analysis relative to control", "format": "functional"}, "[24]": {"test": "Downregulation of STK1I gene expression in human MIA PaCa-2 cells assessed as fold change in STK1I expression at 1 uM incubated for 24 hrs by Bru-seq analysis relative to control", "format": "functional"}, "[25]": {"test": "Downregulation of SMAD6 gene expression in human MIA PaCa-2 cells assessed as fold change in SMAD6 expression at 1 uM incubated for 24 hrs by Bru-seq analysis relative to control", "format": "functional"}, "[26]": {"test": "Downregulation of PLKI gene expression in human MIA PaCa-2 cells assessed as fold change in PLKI expression at 1 uM incubated for 24 hrs by Bru-seq analysis relative to control", "format": "functional"}, "MIA PaCa-2 [27]": {"test_system": "MIA PaCa-2", "test": "Induction of circadian rhythm signaling pathway in human MIA PaCa-2 cells by ingenuity pathway analysis", "format": "functional, cell-based"}, "MIA PaCa-2 [28]": {"test_system": "MIA PaCa-2", "test": "Upregulation of UPR gene expression in human MIA PaCa-2 cells by gene set enrichment analysis", "format": "functional, cell-based"}, "MIA PaCa-2 [29]": {"test_system": "MIA PaCa-2", "test": "Upregulation of NFkappaB expression in human MIA PaCa-2 cells by gene set enrichment analysis", "format": "functional, cell-based"}, "MIA PaCa-2 [30]": {"test_system": "MIA PaCa-2", "test": "Downregulation of E2F target gene expression in human MIA PaCa-2 cells by gene set enrichment analysis", "format": "functional, cell-based"}, "MIA PaCa-2 [31]": {"test_system": "MIA PaCa-2", "test": "Downregulation of G2M checkpoint gene expression in human MIA PaCa-2 cells by gene set enrichment analysis", "format": "functional, cell-based"}, "MIA PaCa-2 [32]": {"test_system": "MIA PaCa-2", "test": "Downregulation of mitotic spindle gene expression in human MIA PaCa-2 cells by gene set enrichment analysis", "format": "functional, cell-based"}, "MIA PaCa-2 [33]": {"test_system": "MIA PaCa-2", "test": "Upregulation of ATF3 gene expression in human MIA PaCa-2 cells incubated for 72 hrs by Western blot analysis", "format": "functional, cell-based", "details": "dose <= 600.0 µM, DDE = dose-dependent effect"}}, "note": "Active and inactive are the calls of the source. The calls are words filed in the database; no cut-off is given here.", "data": [{"smiles": "O=C(Nc1cccc2cccnc12)c1cnccn1", "values": [{"measurement": "fold change (FC)", "setting": "[1]", "value": 0.39}, {"measurement": "Activity", "setting": "MIA PaCa-2 [2]", "value": 45.1, "unit": "%"}, {"measurement": "Activity", "setting": "MIA PaCa-2 [3]", "value": 29.4, "unit": "%"}, {"measurement": "Activity", "setting": "MIA PaCa-2 [4]", "value": 57.3, "unit": "%"}, {"measurement": "Activity", "setting": "MIA PaCa-2 [5]", "value": 10.5, "unit": "%"}, {"measurement": "Activity", "setting": "MIA PaCa-2 [6]", "value": 52, "unit": "%"}, {"measurement": "Activity", "setting": "MIA PaCa-2 [7]", "value": 10.7, "unit": "%"}, {"measurement": "Activity", "setting": "MIA PaCa-2 [8]", "value": 2.3, "unit": "%"}, {"measurement": "Activity", "setting": "MIA PaCa-2 [9]", "value": 2.2, "unit": "%"}, {"measurement": "Activity", "setting": "MIA PaCa-2 [10]", "value": 1.4, "unit": "%"}, {"measurement": "Activity", "setting": "MIA PaCa-2 [11]", "value": 1.2, "unit": "%"}, {"measurement": "Activity", "setting": "MIA PaCa-2 [12]", "value": "Active"}, {"measurement": "Activity", "setting": "[13]", "value": "Non-Toxic"}, {"measurement": "Activity", "setting": "[14]", "value": "Non-Toxic"}, {"measurement": "fold change (FC)", "setting": "[15]", "value": 22}, {"measurement": "fold change (FC)", "setting": "[16]", "value": 14.5}, {"measurement": "fold change (FC)", "setting": "[17]", "value": 12.8}, {"measurement": "fold change (FC)", "setting": "[18]", "value": 10.3}, {"measurement": "fold change (FC)", "setting": "[19]", "value": 6}, {"measurement": "fold change (FC)", "setting": "[20]", "value": 6}, {"measurement": "fold change (FC)", "setting": "[21]", "value": 0.32}, {"measurement": "fold change (FC)", "setting": "[22]", "value": 0.46}, {"measurement": "fold change (FC)", "setting": "[23]", "value": 0.4}, {"measurement": "fold change (FC)", "setting": "[24]", "value": 0.4}, {"measurement": "fold change (FC)", "setting": "[25]", "value": 0.44}, {"measurement": "fold change (FC)", "setting": "[26]", "value": 0.47}, {"measurement": "Activity", "setting": "MIA PaCa-2 [27]", "value": "Active"}, {"measurement": "Activity", "setting": "MIA PaCa-2 [28]", "value": "Active"}, {"measurement": "Activity", "setting": "MIA PaCa-2 [29]", "value": "Active"}, {"measurement": "Activity", "setting": "MIA PaCa-2 [30]", "value": "Active"}, {"measurement": "Activity", "setting": "MIA PaCa-2 [31]", "value": "Active"}, {"measurement": "Activity", "setting": "MIA PaCa-2 [32]", "value": "Active"}, {"measurement": "Activity", "setting": "MIA PaCa-2 [33]", "value": "Dde"}]}]}
